Assays:
hMOR = conditions: BRET G protein activation assay, cited from earlier work
human 5-HT1ARs [1] = target: T1, human 5-HT1ARs (Homo sapiens, UniProt P08908); test: In vitro 5-HT1A receptor cAMP signaling; type: cell-based; conditions: for 5-HT1A E/Imax: Emax is the percent maximum serotonin, agonist, response, value (SEM), N.A. = no activation or inactivation up to 30 μM
T1 sequence (P08908 1-422): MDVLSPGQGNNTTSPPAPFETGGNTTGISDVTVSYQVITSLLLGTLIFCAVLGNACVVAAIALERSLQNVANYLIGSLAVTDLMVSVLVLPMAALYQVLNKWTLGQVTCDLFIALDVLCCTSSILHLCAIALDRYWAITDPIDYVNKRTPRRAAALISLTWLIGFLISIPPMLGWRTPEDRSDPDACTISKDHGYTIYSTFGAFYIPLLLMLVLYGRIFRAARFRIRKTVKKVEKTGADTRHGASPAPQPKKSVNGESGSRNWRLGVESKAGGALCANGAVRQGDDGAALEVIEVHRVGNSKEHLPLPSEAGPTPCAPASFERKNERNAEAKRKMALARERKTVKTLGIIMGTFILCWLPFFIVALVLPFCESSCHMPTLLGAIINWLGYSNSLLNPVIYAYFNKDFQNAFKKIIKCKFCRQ

human 5-HT2B receptors [2] = target: T2, human 5-HT2B receptors (Homo sapiens, UniProt P41595); test: 5-HT2B receptor phosphoinositide hydrolysis; type: cell-based; conditions: for 5-HT2B E/Imax (Imax): Imax is the percent maximum SB 206553, inverse agonist, response, value (SEM), N.A. = no activation or inactivation up to 30 μM; for In vitro functional activity at human 5-HT2BRs: phosphoinositide hydrolysis assay
T2 sequence (P41595 whole entry): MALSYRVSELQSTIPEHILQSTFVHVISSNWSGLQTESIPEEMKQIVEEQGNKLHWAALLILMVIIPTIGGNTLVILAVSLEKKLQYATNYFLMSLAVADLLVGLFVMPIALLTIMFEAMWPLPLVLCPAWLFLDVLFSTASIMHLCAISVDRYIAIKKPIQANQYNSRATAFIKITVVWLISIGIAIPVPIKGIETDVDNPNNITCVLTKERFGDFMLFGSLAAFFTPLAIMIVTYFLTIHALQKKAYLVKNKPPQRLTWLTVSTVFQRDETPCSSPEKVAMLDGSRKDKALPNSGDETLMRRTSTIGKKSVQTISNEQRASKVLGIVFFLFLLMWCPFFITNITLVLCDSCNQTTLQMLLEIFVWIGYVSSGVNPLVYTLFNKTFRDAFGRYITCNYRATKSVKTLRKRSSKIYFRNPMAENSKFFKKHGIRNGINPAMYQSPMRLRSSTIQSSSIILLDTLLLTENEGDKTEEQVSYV

human 5-HT2B receptors [3] = target: T2, human 5-HT2B receptors; type: binding; conditions: 100 nM alkaloid; [125I](±)DOI; CHO-K1 cells
5-HT3Rs = target: T3, 5-HT3Rs (Homo sapiens, UniProt P46098); test: Radioligand competition binding at 5-HT3Rs
T3 sequence (P46098 24-478): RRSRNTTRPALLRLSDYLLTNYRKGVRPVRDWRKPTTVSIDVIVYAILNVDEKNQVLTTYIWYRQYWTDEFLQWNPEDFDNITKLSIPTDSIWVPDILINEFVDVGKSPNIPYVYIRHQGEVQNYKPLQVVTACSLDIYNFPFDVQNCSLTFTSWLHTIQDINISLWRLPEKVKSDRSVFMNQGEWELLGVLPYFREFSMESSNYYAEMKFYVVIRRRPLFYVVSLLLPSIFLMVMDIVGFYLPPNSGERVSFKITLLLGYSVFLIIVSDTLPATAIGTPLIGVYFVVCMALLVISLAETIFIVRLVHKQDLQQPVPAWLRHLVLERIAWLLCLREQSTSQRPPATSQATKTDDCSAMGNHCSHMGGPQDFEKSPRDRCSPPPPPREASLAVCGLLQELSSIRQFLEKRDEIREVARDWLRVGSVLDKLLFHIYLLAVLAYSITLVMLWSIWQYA

5-HT1A receptors = conditions: cited from earlier work
adrenergic α1D receptors = conditions: read-out: Ki adrenergic α1D receptors; cited from earlier work
[4] = i.v., male rats
human 5-HT1ARs [5] = target: T1, human 5-HT1ARs; test: Radioligand competition binding at human 5-HT1ARs; conditions: present study versus 540 nM of ref 13
human 5-HT1A receptor = conditions: read-out: Ki human 5-HT1A receptor orthosteric binding site; cited from earlier work

C=C[C@H]1CN2CCc3c([nH]c4cccc(O)c34)[C@@H]2C[C@@H]1/C(=C\OC)C(=O)OC [9-O-desmethylpaynantheine (gambireine), Methyl(E)-2-((2S,3R,12bS)-8-hydroxy-3-vinyl-1,2,3,4,6,7,12,12b-octahydroindolo[2,3-a]quinolizin-2-yl)-3-methoxyacrylate]
EC50 (human 5-HT1ARs [1]): 865 nM | 5-HT1A E/Imax (human 5-HT1ARs [1]): 100 (0.08) % | EC50 (human 5-HT2B receptors [2]): 2340 nM | 5-HT2B E/Imax (Imax) (human 5-HT2B receptors [2]): 38 (10.3) %

CC[C@H]1CN2CCc3c([nH]c4cccc(O)c34)[C@@H]2C[C@@H]1/C(=C\OC)C(=O)OC [9-O-desmethylspeciogynine (gambirine), Methyl(E)-2-((2S,3R,12bS)-3-ethyl-8-hydroxy-1,2,3,4,6,7,12,12b-octahydroindolo[2,3-a]quinolizin-2-yl)-3-methoxyacrylate]
EC50 (human 5-HT1ARs [1]): 838 nM | 5-HT1A E/Imax (human 5-HT1ARs [1]): 99 (0.08) % | EC50 (human 5-HT2B receptors [2]): 1470 nM | 5-HT2B E/Imax (Imax) (human 5-HT2B receptors [2]): 45 (14.3) %

CC[C@@H]1CN2CCc3c([nH]c4cccc(O)c34)[C@@H]2C[C@@H]1/C(=C\OC)C(=O)OC [9-hydroxycorynantheidine]
Percent displacement of radioligand, 5-HT2B (human 5-HT2B receptors [3]): 5.2% | Percent displacement of radioligand, 5-HT3 (5-HT3Rs; 100 nM alkaloid): −1.3% | Percent displacement of radioligand, 5-HT3 (5-HT3Rs; 10,000 nM alkaloid): 7.3%

C/C=C1/CN2CCc3c([nH]c4ccccc34)[C@@H]2C[C@@H]1/C(=C/OC)C(=O)OC [Geissoschizine methyl ether]
Activity at 5-HT1A receptors (5-HT1A receptors): potent antagonist

Cn1ccc2cc3c(cc21)CCN3C(=O)Nc1cccnc1 [SB 206553, reference compound]
EC50 (human 5-HT2B receptors [2]): 15.3 nM | 5-HT2B E/Imax (Imax) (human 5-HT2B receptors [2]): 100%

CC[C@@H]1CN2CCc3c([nH]c4ccccc34)[C@@H]2C[C@@H]1/C(=C\OC)C(=O)OC [corynantheidine]
Ki (adrenergic α1D receptors): 41 nM | Percent displacement of radioligand, 5-HT2B (human 5-HT2B receptors [3]): 14.8% | Percent displacement of radioligand, 5-HT3 (5-HT3Rs; 100 nM alkaloid): 6.2% | Percent displacement of radioligand, 5-HT3 (5-HT3Rs; 10,000 nM alkaloid): 6.8%

O=C1c2ccccc2S(=O)(=O)N1CCCCN1CCN(c2ncccn2)CC1 [ipsapirone, reference compound]
5-HT1A E/Imax (human 5-HT1ARs [1]): 82 (0.1) %

CC[C@@H]1CN2CCc3c([nH]c4cccc(OC)c34)[C@@H]2C[C@@H]1/C(=C\OC)C(=O)OC [mitragynine]
Dose-normalized exposure (AUCinf/dose) relative to paynantheine [4]: 3.6 fold | Dose-normalized exposure (AUCinf/dose) relative to speciogynine [4]: 1.7 fold

C=C[C@H]1CN2CCc3c([nH]c4cccc(OC)c34)[C@@H]2C[C@@H]1/C(=C\OC)C(=O)OC [paynantheine, Methyl(E)-3-methoxy-2-((2S,3R,12bS)-8-methoxy-3-vinyl-1,2,3,4,6,7,12,12b-octahydroindolo[2,3-a]quinolizin-2-yl)acrylate]
Functional activity at hMOR (hMOR): low-potency, competitive antagonists | In vitro functional activity at human 5-HT2BRs (human 5-HT2B receptors [2]): no agonist activity | Percent displacement of radioligand, 5-HT3 (5-HT3Rs; 100 nM alkaloid): −9.8% | Percent displacement of radioligand, 5-HT3 (5-HT3Rs; 10,000 nM alkaloid): −0.8%

NCCc1c[nH]c2ccc(O)cc12 [serotonin, reference compound]
5-HT1A E/Imax (human 5-HT1ARs [1]): 100%

CC[C@@H]1CN2CCc3c([nH]c4cccc(OC)c34)[C@H]2C[C@@H]1/C(=C\OC)C(=O)OC [speciociliatine]
Functional activity at hMOR (hMOR): low-potency, competitive antagonists

CC[C@H]1CN2CCc3c([nH]c4cccc(OC)c34)[C@@H]2C[C@@H]1/C(=C\OC)C(=O)OC [speciogynine, Methyl(E)-2-((2S,3R,12bS)-3-ethyl-8-methoxy-1,2,3,4,6,7,12,12b-octahydroindolo[2,3-a]quinolizin-2-yl)-3-methoxyacrylate]
Functional activity at hMOR (hMOR): low-potency, competitive antagonists | Affinity for 5-HT1ARs relative to previously reported value (human 5-HT1ARs [5]): > 10 fold | EC50 (human 5-HT2B receptors [2]): 2020 nM | 5-HT2B E/Imax (Imax) (human 5-HT2B receptors [2]): 24.8 (6.9) % | In vitro functional activity at human 5-HT2BRs (human 5-HT2B receptors [2]): no agonist activity | Ki (human 5-HT1A receptor): 540 nM

Methyl(4S,4aR,13bS,14aS)-4-methyl-4a,5,7,8,13,13b,14,14a-octahydro-4H-indolo[2,3-a]pyrano[3,4-g]quinolizine-1-carboxylate [ajmalicine]
Percent displacement of radioligand, 5-HT2B (human 5-HT2B receptors [3]): 6.2% | Percent displacement of radioligand, 5-HT3 (5-HT3Rs; 100 nM alkaloid): −2.5% | Percent displacement of radioligand, 5-HT3 (5-HT3Rs; 10,000 nM alkaloid): 1.8% | Ki (human 5-HT1A receptor): 420 nM

Source: article PMC9235362 (Journal of medicinal chemistry, 2021)
